Reference: patent publication US20070054868A1, “Synergistic polyphenol compounds, compositions thereof, and uses thereof” (The Trustees of Columbia University in the City of New York, priority 2005, published 2007)
Entries after “also recorded” stand apart in the source; their conditions may differ.

Columns and labels:
Type in all cases: cell-based, human
COX-2 protein = test: Western blot analysis in SW837 cells; conditions: for cellular level of the COX-2 protein: 20 μg/mL
Text: (§1) Total cellular protein was extracted and equivalent amounts of protein can be determined by western blot analysis using the methods described in Suzui, et al., Cancer Res., 62:3997-4006 (2002). The primary antibodies for several proteins are described in Masuda et al., Clin Cancer Res., 7:4220-4229 (2001); Masuda et al., Clin Cancer Res., 9:3486-3491 (2003); and Shimizu et al., Clin Cancer Res., 11:2735-2746 (2005). The primary antibodies for HER3 (2F12) and COX-2 (PG27) were purchased from Upstate Cell Signaling Solutions (Charlottesville, Va.) and Oxford Biochemical Research (Oxford, Mich.), respectively. To examine the levels of expression of the phosphorylated (i.e. activated) form of the HER3 protein (p-HER3), cellular lysates (1 mg/mL) were incubated with 4 μg anti-HER3 antibody overnight at 4° C. with slow agitation, and immune complexes were then precipitated by adding protein A/G agarose (sc-2003, Santa Cruz Biotechnology, Santa Cruz, Calif.). After incubating for 2 hours at 4° C., the beads were washed with lysis buffer, and bound proteins were eluted into the sample buffer and subjected to western blot analysis, as described above. The p-HER3 protein was then detected by using an anti-phospho-tyrosine antibody (PY-20-HRP, BD Transduction Laboratories, San Diego, Calif.). An antibody to actin was used as a loading control. Each membrane was developed using an ECL-enhanced chemiluminescence system (Amersham Biosciences, Piscataway, N.J.).

p-EGFR = test: Western blot analysis in SW837 cells
Text: as §1

p-HER2 = test: Western blot analysis in SW837 cells
Text: as §1

AP-1 promoter = test: Transient transfection luciferase reporter assay in SW837 cells; conditions: 10 and 20 μg/mL, 24 hours, inhibition most apparent for this promoter
Experimental: (§2) Reporter assays were performed performed using the methods described in Suzui, et al., Cancer Res., 62:3997-4006 (2002). The COX-2-luciferase reporter plasmid phPES2(−327/+59) was provided by the National Cardiovascular Research Institute (Osaka, Japan). The pAP-1 luciferase reporter plasmid was provided by the National Cancer Institute (Bethesda, Md.). The NF-[…]B promoter luciferase reporter plasmid […]NF-[…]B-Luc is described in Masuda et al., Clin. Cancer Res. 7:4220-4229 (2001). One μg of DNA of the indicated luciferase reporter plasmid was transfected into SW837 human colon cancer cells (3.0×10^5 cells/35-mm diameter dish) using Lipofectin reagent (Invitrogen) in opti-MEM I medium (Invitrogen). After 24 hours the cells were treated with EGCG (0, 10, or 20 μg/mL) for 24 hours, and extracts were then prepared. Luciferase activities were determined using a luciferase assay system ([…]., Madison, Wis.). In all of these reporter assays the cells were also cotransfected with a CMV-[…]-galactosidase ([…]-gal) reporter. Luciferase activities were normalized with respect to the […]-gal activities, to correct for differences in transfection efficiency, using the methods described in Suzui, et al., Cancer Res., 62:3997-4006 (2002).

COX-2 promoter = test: as above; conditions: 10 and 20 μg/mL, 24 hours
Experimental: as §2

NF-κB promoter = test: as above; conditions: 10 and 20 μg/mL, 24 hours
Experimental: as §2

PGE2 = PGE2 production assay (EIA) in SW837 cells; conditions: 10, 20 or 40 μg/mL, 18 hours, 20 μM arachidonic acid
Experimental: SW837 human colon cancer cells were plated into 35-mm dishes and grown to 60% confluence. The cells were then treated with EGCG (0, 10, 20, or 40 μg/mL) in serum minus medium containing 20 μM arachidonic acid (Sigma) for 18 hours. The cell free medium was then collected and the amounts of PGE2 released by cells into the medium were measured using an EIA kit (Cayman Chemicals, Ann Arbor, Mich.), according to the manufacturer's instructions. Production of PGE2 was normalized to the protein concentration of the cells.

IGF-1 protein = test: Western blot analysis for IGF in SW837 cells
Text: (§3) Total cellular protein was extracted and equivalent amounts of protein were examined by western blot analysis, as described above in Example 6. Cell lysates were separated by SDS-PAGE using 7.5 to 15% polyacrylamide gels and transferred onto Immobilon-P transfer membranes (Millipore Co., Bedford, Mass.). The primary antibodies for IGF-1R[…](#3022) and p-IGF-1R (#3021) were purchased from Cell Signaling Technology (Beverly, Mass.). The primary antibodies for IGF-1R[…](sc-713) and IGFBP-3 (sc-6003) were purchased from Santa Cruz Biotechnology (Santa Cruz, Calif.). The primary antibodies for IGF-1 (clone Sm1.2) and actin (A2066) were purchased from Upstate Cell Signaling Solutions (Charlottesville, Va.) and Sigma Chemical Co. (St Louis, Mo.), respectively. An antibody to actin was used as a loading control. Anti-mouse IgG (Amersham Pharmacia Biosciences, Piscataway, N.J.), anti-rabbit IgG (Amersham Pharmacia Biosciences), or anti-goat IgG (Santa Cruz Biotechnology) antibodies were used as the secondary antibodies. Each membrane was developed using an ECL-enhanced chemiluminescence system (Amersham Biosciences).

IGFBP-3 protein = test: Western blot analysis for IGF in SW837 cells
Text: as §3

p-IGF-1R = test: Western blot analysis for IGF in SW837 cells; conditions: 20 μg/mL, within 6 hours
Text: as §3

IGF-1 = test: Production of growth factors in HepG2 cells; conditions: 20 μg/mL, listed as EGCG
Experimental: (§4) The cells were treated with […] EGCG at 0, 3, 6, 12, 24 and 48 hours, and cell extracts were examined by Western blot analysis using the respective antibodies, or were examined by semiquantitative RT-PCR analysis using IGFBP-3 or IGF-1 specific primers.
(§5) Using the MTT cell proliferation assay described in Example 21, and substituting HepG2 human liver cancer cells in place of SW837 cells, the effects of EGCG (20 μg/mL), an illustrative Synergistic Polyphenol Compound, on the production of IGF-1, IGF-2 and IGFBP-3 was determined. […] Accordingly, the Synergistic Polyphenol Compounds are useful for treating or preventing liver cancer.

IGF-2 = test: Production of growth factors in HepG2 cells; conditions: 20 μg/mL, listed as EGCG
Experimental: as §4, §5

(−)-epigallocatechin gallate
levels of the COX-2 protein (COX-2 protein; 1.0 μg/mL, 96 hours): decrease
cellular level of the COX-2 protein (COX-2 protein; after 12 to 24 hours): marked decrease
cellular level of the COX-2 protein (COX-2 protein; at 48 hours): almost undetectable
levels of the p-EGFR protein (p-EGFR; 1.0 μg/mL, 96 hours): decrease
levels of the p-EGFR protein (p-EGFR; 20 μg/mL, within 6 hours): marked decrease
levels of the p-HER2 protein (p-HER2; 1.0 μg/mL, 96 hours): decrease
levels of the p-HER2 protein (p-HER2; 20 μg/mL, within 6 hours): marked decrease
AP-1 luciferase reporter activity (AP-1 promoter): inhibition
COX-2 luciferase reporter activity (COX-2 promoter): inhibition
NF-κB luciferase reporter activity (NF-κB promoter): inhibition
levels of PGE2 (PGE2): decrease
levels of the IGF-1 protein (IGF-1 protein; 1.0 μg/mL, 96 hours): decrease
levels of the IGF-1 protein (IGF-1 protein; 20 μg/mL, at 12 hours): moderate decrease
levels of the IGF-1 protein (IGF-1 protein; 20 μg/mL, at 24 hours): marked decrease
level of the IGFBP-3 protein (IGFBP-3 protein; 1.0 μg/mL, 96 hours): increase
level of the IGFBP-3 protein (IGFBP-3 protein; 20 μg/mL, at 6 hours, persisted for at least 48 hours): marked increase
levels of the p-IGF-1R protein (p-IGF-1R): marked decrease
production of IGF-1 (IGF-1): inhibited production; also recorded: decreased the production
production of IGF-2 (IGF-2): inhibited production; also recorded: decreased the production
